Assay results from article PMC12459314, “Subcutaneous administration of a novel TRPM8 antagonist reverses cold hypersensitivity while attenuating the drop in core body temperature” (British journal of pharmacology, 2024).
Where “and” joins values, the source holds several entries; their conditions need not be identical. Equal values may be shown once.

Columns and labels:
human TRPV1 = target: T1, human TRPV1 (Homo sapiens, UniProt Q8NER1); assay: FlexStation Ca2+ flux assay in HEK293T cells transfected with human TRPV1; format: cell-based
T1 construct: expressed in transfected cells; host or cells: HEK293T
Description: The human embryonic kidney cell line (HEK293T, CRL-1573, RRID: CVCL_0045) was purchased from the American Type Culture Collection (Manassas, USA) and was maintained in Dulbecco’s Minimal Essential Medium (DMEM, Cellgro10013CV, Corning, Tewksbury, USA) that was supplemented with 10% fetal bovine serum (Gemini Bio-products), 2-mM L-glutamine (Invitrogen) and 100 U/mL penicillin and streptomycin (Invitrogen) and cultured in an incubator at 37°C, 5% CO2 and 95% humidity. Human TRPV1 and TRPA1 plasmid DNA (gift from D. Julius) were transiently bulk transfected individually into HEK293T cells using the FuGene HD transfection reagent (TFR, Promega, Madison, WI, USA) at a 3:1 ratio (TFR:DNA). […] The plate was transferred to a FlexStation 3 microplate reader. Relative fluorescence units (RFUs) (Ex. 485 nm, Em 525 nm) were then acquired at 37°C in the kinetic mode. The run time for the agonist (1st) and antagonist (2nd) reads were 60 s each, for a total run time of 120 s, with an interval of 3.1 s between reads in the same well to allow all 16 wells in a column to be read sequentially, and the photomultiplier tube (PMT) level was set at medium, with 6 flashes per read. Baseline Fluo-6 RFUs were acquired for 18 s prior to the addition of compound in both the agonist and antagonist reads. For the first addition agonist read, the volume in the well was 50 μl, the pipette height was set at 40 μl, and 12.5 μl of the test compound was delivered at a speed of 2 μl·s^−1 after the baseline RFU’s acquisition period at 19 s, and the RFUs were acquired for an additional 41 s. For the second addition antagonist read, the volume in the well was 62.5 μl, the pipette height was set at 40 μl, and 12.5 μl of an EC80 agonist concentration was delivered at a speed of 2 μl/s after the baseline RFU’s acquisition period at 19 s, and the RFUs were acquired for an additional 41 s. […]

[1] = target: T2, dopamine transporter (DAT) (Homo sapiens, UniProt Q01959); assay: SAFETYscan E/IC50 ELECT, dopamine transporter antagonist assay; format: cell-based; settings: single experiment
T2 construct: purchased Eurofins DiscoverX (SAFETYscan E/IC50 ELECT service)
Description: (§1) Assessment of the safety profile of VBJ103 across 78 assays using recombinant human targets was performed with the SAFETYscan E/IC50 ELECT service by Eurofins DiscoverX (San Diego, CA, USA). […] The assays were performed utilizing PathHunter enzyme fragment complementation (EFC) technology, FLIPR®-based cellular screening assays, KINOMEscan kinase binding assays and a variety of enzymatic assays. Further potential functional activity at opioid receptors was performed in the gpcrSCAN service by Eurofins DiscoverX. Hit Hunter® cAMP assays were carried out using Enzyme Fragment Complementation (EFC) with β-galactosidase (β-Gal) as the functional reporter.

[2] = target: T3, δ opioid receptor (OPRD1) (Homo sapiens, UniProt P41143); assay: Eurofins DiscoverX opioid receptor assays (SAFETYscan; HitHunter cAMP), OPRD1; format: cell-based
T3 construct: purchased Eurofins DiscoverX (SAFETYscan; gpcrSCAN; HitHunter cAMP XS+)
Description: as §1
(§2) Assessment of potential positive allosteric modulator (PAM) activity at μ, δ and κ opioid receptors was performed with the DiscoverX HitHunter cAMP XS+ assay by Eurofins DiscoverX (San Diego, CA, USA).

[3] = target: T4, κ opioid receptor (OPRK1) (Homo sapiens, UniProt P41145); assay: Eurofins DiscoverX opioid receptor assays (SAFETYscan; HitHunter cAMP), OPRK1; format: cell-based
T4 construct: purchased Eurofins DiscoverX (SAFETYscan; gpcrSCAN; HitHunter cAMP XS+)
Description: as §1, §2

[4] = Partition coefficient (logD), shake flask method; format: physicochemical; settings: n-octanol / pH 7.4 phosphate buffer, pH 7.4
Description: The partition coefficient (logD) at pH 7.4 of VBJ103 was determined using the shake flask method by Absorption Systems (Exton, PA, USA). The buffer was prepared by combining 50 ml of 0.2-M solution of KH2PO4 with 150 ml of dH2O and then adjusting to pH 7.4 with 10-N NaOH. In a single incubation, 15 μl of a 10-mM DMSO solution of each test article was added to test tubes which contained 0.75 ml of n-octanol and 0.75 ml of pH 7.4 phosphate buffer. Testosterone was also introduced to each tube as an internal control, also at a dosing concentration of 100 μM. These samples were gently mixed on a benchtop rotator for 1 h at room temperature. The tubes were then removed from the rotator, and the aqueous and organic phases were allowed to separate for 1 h. An aliquot of the organic layer was taken and diluted 200-fold into a mixture of 1:1 buffer: acetonitrile (ACN). An aliquot of the aqueous layer was taken and diluted 2-fold, 10-fold and 200-fold into a mixture of 1:1 buffer: ACN. All samples were assayed by LC–MS/MS on a Thermo BDS Hypersil C18 column (30 × 2.1 mm, 3 μm) using electrospray ionization, as previously reported ([Journigan et al., 2020]).

[5] = parameters: method as in Journigan et al., 2020; settings: intraplantar administration; ref Journigan et al., 2020; cited from earlier work
[6] = Positive Allosteric Modulator format, read-out: Max Response, cAMP

T4 sequence (P41145 whole entry): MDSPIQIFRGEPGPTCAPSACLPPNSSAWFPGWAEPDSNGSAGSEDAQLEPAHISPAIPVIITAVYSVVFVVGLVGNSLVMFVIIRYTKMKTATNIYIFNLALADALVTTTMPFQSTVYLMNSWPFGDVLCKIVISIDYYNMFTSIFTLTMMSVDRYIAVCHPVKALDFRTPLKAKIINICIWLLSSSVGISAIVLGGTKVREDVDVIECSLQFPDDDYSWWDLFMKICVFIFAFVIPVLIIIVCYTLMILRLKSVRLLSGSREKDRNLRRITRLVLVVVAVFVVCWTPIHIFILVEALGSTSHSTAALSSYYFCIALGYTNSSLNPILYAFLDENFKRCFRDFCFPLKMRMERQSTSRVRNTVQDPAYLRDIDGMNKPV
T3 sequence (P41143 whole entry): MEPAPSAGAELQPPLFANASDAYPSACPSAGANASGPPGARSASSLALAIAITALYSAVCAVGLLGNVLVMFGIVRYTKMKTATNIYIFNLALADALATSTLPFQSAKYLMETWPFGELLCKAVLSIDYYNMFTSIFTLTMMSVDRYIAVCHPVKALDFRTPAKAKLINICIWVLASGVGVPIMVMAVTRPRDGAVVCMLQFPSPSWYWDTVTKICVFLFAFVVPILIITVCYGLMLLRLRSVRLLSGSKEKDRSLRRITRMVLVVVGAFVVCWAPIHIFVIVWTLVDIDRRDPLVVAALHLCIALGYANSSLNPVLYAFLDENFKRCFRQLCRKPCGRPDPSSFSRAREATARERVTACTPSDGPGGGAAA
T2 sequence (Q01959 whole entry): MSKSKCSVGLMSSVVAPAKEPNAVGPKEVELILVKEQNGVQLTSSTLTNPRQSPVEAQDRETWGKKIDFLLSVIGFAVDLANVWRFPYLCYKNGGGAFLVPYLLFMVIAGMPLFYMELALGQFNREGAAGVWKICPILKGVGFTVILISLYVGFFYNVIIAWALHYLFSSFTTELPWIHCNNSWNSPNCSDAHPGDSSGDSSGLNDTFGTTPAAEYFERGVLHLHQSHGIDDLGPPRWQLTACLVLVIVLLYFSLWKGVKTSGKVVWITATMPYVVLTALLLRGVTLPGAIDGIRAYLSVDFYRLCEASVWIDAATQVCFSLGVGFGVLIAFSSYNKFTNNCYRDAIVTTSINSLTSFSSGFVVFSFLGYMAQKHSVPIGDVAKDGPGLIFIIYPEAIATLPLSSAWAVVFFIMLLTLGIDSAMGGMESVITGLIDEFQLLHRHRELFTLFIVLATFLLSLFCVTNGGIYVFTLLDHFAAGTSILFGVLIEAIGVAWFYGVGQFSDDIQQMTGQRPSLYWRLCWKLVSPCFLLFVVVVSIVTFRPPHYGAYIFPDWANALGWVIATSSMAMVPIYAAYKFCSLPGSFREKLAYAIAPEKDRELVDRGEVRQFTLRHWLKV
T1 sequence (Q8NER1 whole entry): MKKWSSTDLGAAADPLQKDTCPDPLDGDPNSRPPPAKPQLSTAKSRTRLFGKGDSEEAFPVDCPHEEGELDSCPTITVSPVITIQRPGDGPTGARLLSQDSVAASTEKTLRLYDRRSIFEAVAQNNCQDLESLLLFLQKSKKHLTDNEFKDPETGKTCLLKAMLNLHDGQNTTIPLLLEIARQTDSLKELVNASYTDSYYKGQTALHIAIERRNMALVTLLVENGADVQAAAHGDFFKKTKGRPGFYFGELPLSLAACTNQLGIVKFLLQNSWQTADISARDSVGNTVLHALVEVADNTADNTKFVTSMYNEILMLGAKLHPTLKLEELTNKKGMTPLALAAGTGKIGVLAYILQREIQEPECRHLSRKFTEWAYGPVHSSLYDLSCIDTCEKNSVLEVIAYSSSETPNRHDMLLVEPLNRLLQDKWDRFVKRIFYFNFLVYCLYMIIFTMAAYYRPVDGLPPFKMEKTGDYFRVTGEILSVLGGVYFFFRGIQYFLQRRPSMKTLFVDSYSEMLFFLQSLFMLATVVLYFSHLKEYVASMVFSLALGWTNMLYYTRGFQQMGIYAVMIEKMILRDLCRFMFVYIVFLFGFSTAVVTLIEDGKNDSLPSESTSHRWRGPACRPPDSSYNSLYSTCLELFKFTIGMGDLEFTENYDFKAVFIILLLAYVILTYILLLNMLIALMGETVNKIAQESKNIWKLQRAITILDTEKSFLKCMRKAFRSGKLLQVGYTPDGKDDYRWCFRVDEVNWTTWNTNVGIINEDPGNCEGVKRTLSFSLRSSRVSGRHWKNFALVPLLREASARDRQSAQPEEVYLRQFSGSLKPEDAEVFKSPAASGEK

SMILES: O=C(NC1CCC2(CCCC2)CC1)c1ccc(-c2ccccc2)cc1 [VBJ103, N-(Spiro[4.5]decan-8-yl)-[1,1′-biphenyl]-4-carboxamide]
- agonist activity at TRPV1 (human TRPV1; compound alone): no apparent agonist activity
- inhibition of the Ca2+ signal at TRPV1 (human TRPV1; evoked with an EC80 concentration (0.1 μM) of capsaicin): Nor was there a detectable inhibition
- IC50 ([1]; 10 concentrations, 0.005 to 100 μM): 125 nM and ~125 nM
- DAT maximal inhibition ([1]; in relation to the control GBR 12909): ~ 60%
- Emax [2, 6]: 0%
- EC50 ([2]; read-out: RC50 (EC50), cAMP): > 100000 nM
- activity at δ opioid receptor ([2]; safety panel): no activity
- Emax [3, 6]: 19.7%
- EC50 ([3]; read-out: RC50 (EC50), cAMP): > 100000 nM
- activity at κ opioid receptor ([3]; safety panel): no activity
- logD at 1 h [4]: 3.21
- oxaliplatin-induced hypersensitivity to non-noxious cooling (acetone drop) [5]: dose-dependently suppresses
